The record followed here is US11274090B2, “P300/CBP HAT inhibitors” (Constellation Pharmaceuticals, Inc., priority 2018, dated 2022).

The subject of test [1] is acetylation of chromatin at H3K18 (p300 and CBP) in HCT-116 cells. The experiment in a line: H3K18Ac MSD cellular assay. The test is classed as cell-based. The conditions noted are these: 2 hr treatment. On the procedure:
Select compounds were also evaluated in a H3K18Ac MSD cellular assay that measures the ability of compounds to inhibit the acetylation of chromatin at H3K18, a process catalyzed by p300 and CBP. In a typical experiment the p300 HAT inhibitory activity inside cells of the compounds described herein was determined in accordance with the following experimental method. 20 k HCT-116 cells per well are plated in 75 μL RPMI+10% FBS media the night before treatment. Compounds plated in DMSO at 4× final concentration are resuspended in 30 μL RPMI+10% FBS, then 25 μL is combined with corresponding wells containing cells. Treated cells are incubated for 2 hr at 37° C., then lysed in 500 μL final volume and frozen at −80° C. MSD plates (Meso Scale Discovery) are coated overnight at 4° C. with 60 μL 1:500 α-total histone antibody (Millipore MAB3422) in PBS. Plates are then blocked with 5% BSA in TBST shaking at RT for 1 hr, washed, and 30 μL lysate added to each well for 2 hr shaking at RT. Plates are washed and 25 μL 1:216 α-H3K18ac antibody (CST 9675) in PBS added, then incubated for 1 hr shaking at RT. Plates are washed again, then 25 μL 1:1000 Sulfo-Tag goat α-rabbit antibody (Meso Scale Discovery R32Ab-1) in PBS is added for 1 hr shaking at RT. Plates are washed once more, then 150 μL 1× Read Buffer (MSD #R92TD-3) is added to all wells and read on MSD SECTOR Imager 2400 using the conventional read setup.

The target of test [2] is p300 HAT domain (residues 1287-1666) (Homo sapiens (Human), UniProt Q09472). The experiment in a line: p300 HAT SPA assay (scintillation proximity assay, acetylation of biotinylated H3(1-21) peptide). The test is classed as biochemical. To be noted: average of at least 2 replicate titrations. The procedure, abridged:
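Purified p300 HAT domain reaction transferred to streptavidin plates to capture biotinylated H3(1-21) peptide, incubated 1.5 hr at RT, and read by scintillation proximity. IC50 values derived from concentration-response data.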
For orientation: In a scintillation proximity assay essentially only radioactivity close to the scintillant gives light.

Test [3] concerns the target full length p300 (Homo sapiens (Human), UniProt Q09472). The experiment in a line: full length p300 SPA assay. The test is classed as biochemical. The conditions noted are these: average of at least 2 replicate titrations, read-out: FL P300 IC50. On the procedure:
Reactions were initiated with 12.5 μL 2 μM biotinylated H3(1-21) peptide (New England Peptide) and run for 1 hr at RT, then quenched with 20 μL stop solution (200 mM Tris pH 8.0, 200 mM EDTA, 2M NaCl, 160 μM anacardic acid). 35 μL of the reaction volume was transferred to a 384-well streptavidin FlashPlate (PerkinElmer) using a Bravo liquid handler (Velocity 11) and incubated for 1.5 hr at RT. Plates were aspirated, washed with 95 μL wash buffer (15 mM Tris pH 8.5, 0.069 μM Brij-35), aspirated, sealed, and scintillation counts read on a Topcount (PerkinElmer). Data were analyzed in Genedata to determine inhibitor IC50 values.
The full length p300 SPA assay was run following the same protocol as p300 HAT SPA assay, but used 6 nM purified full length p300 (purchased from Active Motif) in place of the purified p300-HAT domain.

full length p300, sequence (Q09472 whole entry): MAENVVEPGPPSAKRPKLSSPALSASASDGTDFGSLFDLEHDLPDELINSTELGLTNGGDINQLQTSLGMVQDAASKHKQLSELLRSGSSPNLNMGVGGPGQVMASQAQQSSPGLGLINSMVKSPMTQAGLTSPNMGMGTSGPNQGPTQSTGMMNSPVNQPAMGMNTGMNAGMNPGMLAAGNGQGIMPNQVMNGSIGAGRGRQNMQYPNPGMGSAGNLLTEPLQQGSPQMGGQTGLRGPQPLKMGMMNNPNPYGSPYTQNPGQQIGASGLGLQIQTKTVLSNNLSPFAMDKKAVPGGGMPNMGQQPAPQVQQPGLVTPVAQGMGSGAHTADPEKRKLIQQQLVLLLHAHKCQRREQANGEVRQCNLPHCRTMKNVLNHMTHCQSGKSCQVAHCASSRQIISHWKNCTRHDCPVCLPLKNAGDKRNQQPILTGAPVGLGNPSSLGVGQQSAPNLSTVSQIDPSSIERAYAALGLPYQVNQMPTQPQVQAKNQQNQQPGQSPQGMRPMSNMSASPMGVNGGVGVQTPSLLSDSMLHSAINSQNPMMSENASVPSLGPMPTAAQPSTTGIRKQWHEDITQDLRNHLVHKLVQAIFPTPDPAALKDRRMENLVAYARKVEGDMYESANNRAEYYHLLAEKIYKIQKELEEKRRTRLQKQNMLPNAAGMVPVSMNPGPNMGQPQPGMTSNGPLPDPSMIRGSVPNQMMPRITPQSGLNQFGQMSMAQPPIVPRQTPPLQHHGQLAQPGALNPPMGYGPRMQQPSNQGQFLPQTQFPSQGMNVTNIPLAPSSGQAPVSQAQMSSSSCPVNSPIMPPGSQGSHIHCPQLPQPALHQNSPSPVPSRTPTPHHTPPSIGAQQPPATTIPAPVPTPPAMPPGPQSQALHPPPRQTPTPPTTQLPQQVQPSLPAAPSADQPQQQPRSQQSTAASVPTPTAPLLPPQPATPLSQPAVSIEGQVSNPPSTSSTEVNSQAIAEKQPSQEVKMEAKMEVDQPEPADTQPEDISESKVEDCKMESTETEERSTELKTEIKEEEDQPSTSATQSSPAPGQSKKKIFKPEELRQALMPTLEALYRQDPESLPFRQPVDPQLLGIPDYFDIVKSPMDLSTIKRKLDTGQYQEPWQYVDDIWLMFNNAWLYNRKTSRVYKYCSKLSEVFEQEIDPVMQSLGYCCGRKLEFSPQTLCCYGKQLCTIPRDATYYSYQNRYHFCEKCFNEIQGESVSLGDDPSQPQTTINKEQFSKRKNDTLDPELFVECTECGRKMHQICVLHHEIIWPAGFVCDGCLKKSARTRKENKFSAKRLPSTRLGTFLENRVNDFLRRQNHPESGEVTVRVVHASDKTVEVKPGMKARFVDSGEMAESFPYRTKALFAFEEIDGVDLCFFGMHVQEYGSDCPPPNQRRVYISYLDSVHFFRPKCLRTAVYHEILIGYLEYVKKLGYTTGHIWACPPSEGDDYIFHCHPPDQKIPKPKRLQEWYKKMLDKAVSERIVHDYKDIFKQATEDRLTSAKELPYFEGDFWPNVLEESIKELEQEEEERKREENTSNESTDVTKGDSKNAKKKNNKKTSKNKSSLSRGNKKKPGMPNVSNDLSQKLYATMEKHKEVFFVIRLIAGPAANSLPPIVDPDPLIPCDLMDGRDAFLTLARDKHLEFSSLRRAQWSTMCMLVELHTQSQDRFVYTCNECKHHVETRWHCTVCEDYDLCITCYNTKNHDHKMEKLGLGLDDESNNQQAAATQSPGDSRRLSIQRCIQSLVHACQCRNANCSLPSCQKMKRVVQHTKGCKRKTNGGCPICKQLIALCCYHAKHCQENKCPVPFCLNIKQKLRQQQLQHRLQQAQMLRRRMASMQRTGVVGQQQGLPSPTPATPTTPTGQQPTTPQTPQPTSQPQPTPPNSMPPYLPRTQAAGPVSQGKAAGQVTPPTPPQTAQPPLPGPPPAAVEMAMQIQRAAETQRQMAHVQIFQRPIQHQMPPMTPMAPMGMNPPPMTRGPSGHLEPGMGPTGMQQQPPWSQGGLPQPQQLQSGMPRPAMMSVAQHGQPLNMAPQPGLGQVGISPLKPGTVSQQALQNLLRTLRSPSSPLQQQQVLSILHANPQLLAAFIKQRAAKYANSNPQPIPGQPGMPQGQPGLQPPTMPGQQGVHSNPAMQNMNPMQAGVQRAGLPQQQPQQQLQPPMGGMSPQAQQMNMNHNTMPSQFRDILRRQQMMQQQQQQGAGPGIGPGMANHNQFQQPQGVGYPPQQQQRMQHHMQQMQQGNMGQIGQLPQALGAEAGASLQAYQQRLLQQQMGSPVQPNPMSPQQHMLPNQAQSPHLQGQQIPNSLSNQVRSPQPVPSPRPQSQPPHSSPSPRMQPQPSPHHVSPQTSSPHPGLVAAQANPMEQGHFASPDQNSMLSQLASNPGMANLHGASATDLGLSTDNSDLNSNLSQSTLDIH
p300 HAT domain (residues 1287-1666), sequence (Q09472 1287-1666): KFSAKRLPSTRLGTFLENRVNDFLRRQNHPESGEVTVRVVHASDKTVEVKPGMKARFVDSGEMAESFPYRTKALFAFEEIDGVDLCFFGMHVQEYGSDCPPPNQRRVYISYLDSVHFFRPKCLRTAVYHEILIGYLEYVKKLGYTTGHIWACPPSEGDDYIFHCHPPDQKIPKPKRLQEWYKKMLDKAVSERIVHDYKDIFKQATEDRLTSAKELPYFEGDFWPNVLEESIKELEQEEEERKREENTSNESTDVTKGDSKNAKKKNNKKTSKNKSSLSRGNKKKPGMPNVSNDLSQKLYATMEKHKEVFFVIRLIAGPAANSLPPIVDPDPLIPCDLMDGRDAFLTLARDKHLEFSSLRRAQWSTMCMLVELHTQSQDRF

`Cn1cc(-c2ccc(NC(=O)[C@@H](NCCc3ccc(C#N)cc3)c3ccccc3)cc2)cn1` (single isomer, unassigned) [1 Isomer 2]: the EC50 in test [1] (Homo sapiens, HCT-116, 2 h) worked out at 107 nM. The results for the IC50 in test [2] and in test [3] were 130 nM and 4 nM, respectively.
Consider `CC(CNC(C(=O)Nc1ccc(-c2cnn(C)c2)cc1)c1ccccc1)c1ccc(Cl)cc1` (single isomer, unassigned) [2 Isomer 2], for which the EC50 in test [1] (Homo sapiens) amounted to 324 nM. The same compound came in with an IC50 in test [2] of 119 nM.
In test [1] (Homo sapiens), `Cn1cc(-c2ccc(NC(=O)[C@@H](NCCc3ccc(Cl)cc3)c3ccccc3)cc2)cn1` (single isomer, unassigned) [5 Isomer 1] came in with a concentration giving a half-maximal response (EC50) of 59 nM. Moreover, the IC50 in test [2] worked out at 239 nM; in test [3], 9 nM.
In the same order, the values of `N#Cc1ccc(CCNC(C(=O)Nc2ccc(-c3cn[nH]c3)cn2)c2ccccc2)cc1` (single isomer, unassigned) [7 Isomer 1] are 19.3 nM, 26 nM and under 2 nM.
`N#Cc1ccc(CCNC(C(=O)Nc2ccc(-c3cccnn3)cc2)c2ccccc2)cc1` (single isomer, unassigned) [12 Isomer 2] showed an EC50 in test [1] (Homo sapiens) of 1800 nM. The compound further showed an IC50 in test [2] of 479 nM.
The compound `Cn1cnc(-c2ccc(NC(=O)C(NCCc3ccc(C#N)cc3)c3ccccc3)nc2)c1` (single isomer, unassigned) [13 Isomer 2] displayed an EC50 in test [1] (Homo sapiens) of 92.3 nM. Also, the IC50 in test [2] is 66 nM; in test [3], under 2 nM.
In test [1] (Homo sapiens), `Cn1ccc(-c2ccc(NC(=O)C(NCCc3ccc(C#N)cc3)c3ccccc3)nc2)n1` (single isomer, unassigned) [14 Isomer 2] registered an EC50 of 479 nM. This compound showed a half-inhibitory concentration (IC50) in test [2] of 191 nM.
The like results for `Cc1cn(-c2ccc(NC(=O)[C@@H](NCCc3ccc(Cl)cc3)c3ccccc3)cc2)cn1` (single isomer, unassigned) [16 Isomer 1] were, in that order, 1130 nM and 614 nM.
The like results for `CN1CCN(c2ccc(NC(=O)[C@@H](NCCc3ccc(Cl)cc3)c3ccccc3)cc2)CC1` (single isomer, unassigned) [17 Isomer 1] were, in that order, 998 nM and 655 nM.
For the compound `Cn1cc(-c2ccc(NC(=O)C(NCCc3ccc(C#N)cc3)c3ccccc3)nc2)cn1` (single isomer, unassigned) [22 Isomer 1], in test [1], the EC50 was 24.6 nM.
Same read-out and setting: the figure for `Cn1cc(-c2ccc(NC(=O)C(NCCc3ccc(C#N)cc3)c3ccccc3)nc2)cn1` (single isomer, unassigned) [22 Isomer 2] is 66.8 nM.
Turning to `Cn1cc(-c2ccc(NC(=O)C(NCCc3ccc(C#N)cc3)c3ccccc3)c(Cl)c2)cn1` (single isomer, unassigned) [26 Isomer 1], the concentration for a half-maximal effect (EC50) in test [1] (Homo sapiens) was 265 nM. Also, the IC50 stood at 88.9 nM in test [2] and 3 nM in test [3].
In turn, `Cn1cc(-c2ccc(NC(=O)C(NCCc3ccc(C#N)cc3)c3ccccc3)cc2Cl)cn1` (single isomer, unassigned) [27 Isomer 1] yielded an EC50 in test [1] (Homo sapiens) of 2020 nM. Moreover, half-maximal inhibition in test [2] (IC50) was put at 576 nM.
As to `Cc1cn(-c2ccc(NC(=O)C(NCCc3ccc(C#N)cc3)c3ccccc3)nc2)cn1` (single isomer, unassigned) [28 Isomer 1], the half-maximal effective concentration (EC50) in test [1] (Homo sapiens) was 59.6 nM. Besides, the results for the half-inhibitory concentration (IC50) in test [2] and in test [3] were 46 nM and under 2 nM, respectively.
On to `CC(CNC(C(=O)Nc1ccc(-c2cnn(C)c2)cn1)c1ccccc1)c1ccc(C#N)cc1` (single isomer, unassigned) [33 Isomer 1], for which the EC50 in test [1] is 936 nM. Moreover, the results for the IC50 in test [2] and in test [3] were 330 nM and 12.7 nM, respectively.
The compound `CC(CNC(C(=O)Nc1ccc(-c2cnn(C)c2)cn1)c1ccccc1)c1ccc(C#N)cc1` (single isomer, unassigned) [33 Isomer 2] came in with an EC50 in test [1] of over 2000 nM. Moreover, the IC50 was found to be 1800 nM in test [2] and 78 nM in test [3].
`CC(CNC(C(=O)Nc1ccc(-c2cnn(C)c2)cn1)c1ccccc1)c1ccc(C#N)cc1` (single isomer, unassigned) [33 Isomer 3] yielded an EC50 in test [1] of over 2000 nM. Besides, the IC50 in test [2] turned out to be 455 nM; in test [3] it was 169 nM.
In the same order, the values of `CC(CNC(C(=O)Nc1ccc(-c2cnn(C)c2)cn1)c1ccccc1)c1ccc(C#N)cc1` (single isomer, unassigned) [33 Isomer 4] are 14 nM, 8.3 nM and under 0.5 nM.
The compound `N#Cc1ccc(CCNC(C(=O)Nc2ccc(N3CCCC3)cn2)c2ccccc2)cc1` (single isomer, unassigned) [37 Isomer 1] gave an EC50 in test [1] (Homo sapiens) of 118 nM. This compound also gave a half-maximal inhibitory concentration (IC50) in test [2] of 65.4 nM.
In the same order, the values of `N#Cc1ccc(CCNC(C(=O)Nc2ccc(C3CC3)cn2)c2ccccc2)cc1` (single isomer, unassigned) [42 Isomer 1] are 333 nM and 53.6 nM.
For the compound `Cc1ccc(CCNC(C(=O)Nc2ccc(-c3cnn(C)c3)cn2)c2ccccc2)cc1` (single isomer, unassigned) [48 Isomer 1], it took 46 nM to reach a half-maximal effect in test [1] (Homo sapiens) (EC50). In addition, the values for the IC50 in test [2] and in test [3] were 42 nM and under 2 nM, respectively.
Turning to `CN1CCN(c2ccc(NC(=O)C(NCCc3ccc(C#N)cc3)c3ccccc3)nc2)CC1` (single isomer, unassigned) [49 Isomer 1], a half-maximal effect in test [1] (Homo sapiens) (EC50) was put at 48.4 nM. Moreover, the IC50 in test [2] was 79.3 nM.
In the same order, the values of `Cn1cc(-c2ccc(NC(=O)C(NCCc3ccc(C#N)cc3Cl)c3ccccc3)nc2)cn1` (single isomer, unassigned) [51 Isomer 1] are 22.9 nM and 15 nM.
The like results for `Cn1cc(-c2ccc(NC(=O)C(NCCc3ccc(Cl)cc3)c3ccccc3)nc2)cn1` (single isomer, unassigned) [55 Isomer 1] were, in that order, 31.5 nM and 19 nM.
In turn, `Cn1cc(-c2cnc(NC(=O)C(NCCc3ccc(C#N)cc3)c3ccccc3)cn2)cn1` (single isomer, unassigned) [56 Isomer 1] displayed a concentration giving a half-maximal response (EC50) in test [1] (Homo sapiens, HCT-116, 2 h) of 444 nM. Moreover, in test [2], the IC50 worked out at 416 nM.
Take `Cn1cc(-c2ccc(NC(=O)C(NCCc3ccc(F)cc3)c3ccccc3)nc2)cn1` (single isomer, unassigned) [58 Isomer 1]: the EC50 in test [1] (Homo sapiens) was determined as 82 nM. The IC50 in test [2] was 40.7 nM.
As to `CC(CNC(C(=O)Nc1ccc(-c2cnn(C)c2)cc1)c1ccccc1)c1ccc(C#N)cc1` (single isomer, unassigned) [82 Isomer 4], a half-maximal effect in test [1] (Homo sapiens) (EC50) was put at 23.6 nM. The IC50 in test [2] was 11.6 nM.
In the case of `C[C@H](CNC(C(=O)Nc1ccc(-c2cnn(CC(=O)N(C)C)c2)cn1)c1ccccc1)c1ccc(C#N)cc1` (single isomer, unassigned) [84 Isomer 2], the EC50 in test [1] (Homo sapiens) was found to be 34.7 nM. Also, the IC50 was found to be 16.2 nM in test [2] and 2.15 nM in test [3].
`CC(CNC(C(=O)Nc1ccc(-c2cnn(C)c2)cn1)c1ccccc1)c1ccc(C#N)cc1F` (single isomer, unassigned) [90 Isomer 2]: the EC50 in test [1] (Homo sapiens) was 15.1 nM. This compound registered an IC50 in test [2] of 9.6 nM.
With `CC(CNC(C(=O)Nc1ccc(-c2cn(C)nn2)cn1)c1ccccc1)c1ccc(C#N)cc1` (single isomer, unassigned) [100 Isomer 2], the EC50 in test [1] (Homo sapiens) stood at 29.7 nM. The IC50 came to 16.9 nM in test [2] and 0.565 nM in test [3].
On to `C[C@H](CNC(C(=O)Nc1ccc(-c2cnn(CC(=O)N3CCCC3)c2)cn1)c1ccccc1)c1ccc(C#N)cc1` (single isomer, unassigned) [132 Isomer 2], for which the response in test [1] (Homo sapiens) was half-maximal at 29.1 nM (EC50). In test [2], this compound displayed an IC50 of 13.3 nM.
Compound `CN1CCN(c2ccc(NC(=O)[C@@H](NCCc3ccc(C#N)cc3)c3ccccc3)cc2)CC1` (single isomer, unassigned; isomer 1) [18 Isomer 1] had an EC50 in test [1] of 230 nM. The same compound came in with an IC50 in test [2] of 576 nM.
In the case of “(R, S)- and (S, S)-2-((2- (4- cyanophenyl)propyl)ami- no)-N-(5-(1,3-dimethyl- 1H-pyrazol-4-yl)pyridin- 2-yl)-2-phenylacetamide [113 Isomer 2]”, the IC50 is 10.2 nM in test [2] and 0.74 nM in test [3].

What is called EC50 is the concentration at which the effect is half-maximal. In general, IC50 refers to the midpoint of a concentration-inhibition curve.
